# Assay results: ChEMBL document CHEMBL5465560, “Selectivity Literature for EUbOPEN Chemogenomic Library” (2024)
# How the values were obtained:
# [1] = molecular target: T1, Dual specificity mitogen-activated protein kinase kinase 7 (Homo sapiens) (UniProt O14733); assay: Selectivity interaction (KinomeScan (DiscoverX)) EUB0000045b MAP2K7
# T1 sequence (whole entry): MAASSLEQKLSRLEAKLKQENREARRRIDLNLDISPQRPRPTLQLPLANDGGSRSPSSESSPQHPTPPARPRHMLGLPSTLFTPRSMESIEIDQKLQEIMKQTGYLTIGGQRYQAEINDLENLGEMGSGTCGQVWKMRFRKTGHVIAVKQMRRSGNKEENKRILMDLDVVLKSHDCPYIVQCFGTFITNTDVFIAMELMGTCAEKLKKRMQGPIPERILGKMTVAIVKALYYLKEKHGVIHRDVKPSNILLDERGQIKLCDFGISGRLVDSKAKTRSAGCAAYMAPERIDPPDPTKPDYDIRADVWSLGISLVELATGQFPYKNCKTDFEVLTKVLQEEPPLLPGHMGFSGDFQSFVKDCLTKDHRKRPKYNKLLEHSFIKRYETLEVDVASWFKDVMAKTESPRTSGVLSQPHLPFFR
# [2] = molecular target: T2, Tyrosine-protein kinase JAK3 (Homo sapiens) (UniProt P52333); assay: Selectivity interaction (Antiproliferative activity against Tel-kinase transformed Ba/F3 cell line) EUB0000045b JAK3; format: cell-based; settings: BaF3
# T2 sequence (whole entry): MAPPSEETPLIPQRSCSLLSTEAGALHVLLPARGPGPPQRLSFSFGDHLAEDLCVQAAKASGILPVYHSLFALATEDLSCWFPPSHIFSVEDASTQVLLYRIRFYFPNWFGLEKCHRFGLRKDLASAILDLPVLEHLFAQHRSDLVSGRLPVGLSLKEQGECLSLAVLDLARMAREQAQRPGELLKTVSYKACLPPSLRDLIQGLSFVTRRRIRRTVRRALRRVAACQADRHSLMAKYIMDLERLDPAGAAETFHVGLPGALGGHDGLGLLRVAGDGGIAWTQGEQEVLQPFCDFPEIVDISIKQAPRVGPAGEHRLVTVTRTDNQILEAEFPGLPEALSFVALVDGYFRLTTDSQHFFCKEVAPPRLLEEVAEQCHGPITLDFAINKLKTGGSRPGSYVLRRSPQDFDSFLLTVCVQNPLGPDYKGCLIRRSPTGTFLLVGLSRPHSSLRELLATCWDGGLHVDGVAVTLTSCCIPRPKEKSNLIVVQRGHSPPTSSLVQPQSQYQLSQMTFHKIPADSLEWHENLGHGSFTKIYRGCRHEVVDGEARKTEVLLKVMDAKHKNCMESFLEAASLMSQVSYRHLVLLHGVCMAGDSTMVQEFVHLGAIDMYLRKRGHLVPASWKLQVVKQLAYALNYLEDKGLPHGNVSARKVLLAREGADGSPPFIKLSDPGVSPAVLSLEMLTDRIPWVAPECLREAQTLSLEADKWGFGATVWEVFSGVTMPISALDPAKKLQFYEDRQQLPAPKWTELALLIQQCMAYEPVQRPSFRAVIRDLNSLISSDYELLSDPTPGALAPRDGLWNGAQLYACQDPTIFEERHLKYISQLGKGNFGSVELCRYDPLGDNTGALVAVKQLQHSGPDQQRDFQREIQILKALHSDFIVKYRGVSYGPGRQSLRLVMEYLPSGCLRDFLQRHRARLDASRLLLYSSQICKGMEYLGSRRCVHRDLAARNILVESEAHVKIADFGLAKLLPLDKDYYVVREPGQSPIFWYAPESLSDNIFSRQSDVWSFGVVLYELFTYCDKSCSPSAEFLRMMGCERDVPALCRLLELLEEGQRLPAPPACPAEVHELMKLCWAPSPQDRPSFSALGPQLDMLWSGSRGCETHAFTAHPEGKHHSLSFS
# [3] = molecular target: Serine/threonine-protein kinase PLK2 (Homo sapiens, UniProt Q9NYY3); assay: Selectivity interaction (Kinase panel (Z-LYTE Assay)) EUB0001632a PLK2; settings: at 10 µM
# Sequence of Serine/threonine-protein kinase PLK2 (Q9NYY3 whole entry, looked up): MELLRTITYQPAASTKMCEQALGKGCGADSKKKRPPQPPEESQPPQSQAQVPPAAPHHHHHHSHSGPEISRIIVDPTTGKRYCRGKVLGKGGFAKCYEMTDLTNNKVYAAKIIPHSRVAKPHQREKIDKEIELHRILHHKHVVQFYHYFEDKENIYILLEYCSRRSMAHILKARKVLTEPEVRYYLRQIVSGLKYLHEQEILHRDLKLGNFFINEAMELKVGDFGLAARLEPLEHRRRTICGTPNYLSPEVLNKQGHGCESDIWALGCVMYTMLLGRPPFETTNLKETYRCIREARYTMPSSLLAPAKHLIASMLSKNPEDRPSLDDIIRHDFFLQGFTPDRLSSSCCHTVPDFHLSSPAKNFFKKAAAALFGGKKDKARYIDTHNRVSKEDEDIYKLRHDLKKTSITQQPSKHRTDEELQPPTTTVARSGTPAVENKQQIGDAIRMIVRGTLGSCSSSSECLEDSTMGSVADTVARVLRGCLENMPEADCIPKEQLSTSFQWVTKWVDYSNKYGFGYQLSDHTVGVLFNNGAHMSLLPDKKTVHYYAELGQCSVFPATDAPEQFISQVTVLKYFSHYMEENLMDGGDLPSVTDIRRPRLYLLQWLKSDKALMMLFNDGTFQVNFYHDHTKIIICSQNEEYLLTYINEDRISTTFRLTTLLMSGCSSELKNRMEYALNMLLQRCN
# [4] = molecular target: Vascular endothelial growth factor receptor 3 (Homo sapiens, UniProt P35916); assay: Selectivity interaction (ProQinase) EUB0000171b FLT4
# Sequence of Vascular endothelial growth factor receptor 3 (P35916 whole entry): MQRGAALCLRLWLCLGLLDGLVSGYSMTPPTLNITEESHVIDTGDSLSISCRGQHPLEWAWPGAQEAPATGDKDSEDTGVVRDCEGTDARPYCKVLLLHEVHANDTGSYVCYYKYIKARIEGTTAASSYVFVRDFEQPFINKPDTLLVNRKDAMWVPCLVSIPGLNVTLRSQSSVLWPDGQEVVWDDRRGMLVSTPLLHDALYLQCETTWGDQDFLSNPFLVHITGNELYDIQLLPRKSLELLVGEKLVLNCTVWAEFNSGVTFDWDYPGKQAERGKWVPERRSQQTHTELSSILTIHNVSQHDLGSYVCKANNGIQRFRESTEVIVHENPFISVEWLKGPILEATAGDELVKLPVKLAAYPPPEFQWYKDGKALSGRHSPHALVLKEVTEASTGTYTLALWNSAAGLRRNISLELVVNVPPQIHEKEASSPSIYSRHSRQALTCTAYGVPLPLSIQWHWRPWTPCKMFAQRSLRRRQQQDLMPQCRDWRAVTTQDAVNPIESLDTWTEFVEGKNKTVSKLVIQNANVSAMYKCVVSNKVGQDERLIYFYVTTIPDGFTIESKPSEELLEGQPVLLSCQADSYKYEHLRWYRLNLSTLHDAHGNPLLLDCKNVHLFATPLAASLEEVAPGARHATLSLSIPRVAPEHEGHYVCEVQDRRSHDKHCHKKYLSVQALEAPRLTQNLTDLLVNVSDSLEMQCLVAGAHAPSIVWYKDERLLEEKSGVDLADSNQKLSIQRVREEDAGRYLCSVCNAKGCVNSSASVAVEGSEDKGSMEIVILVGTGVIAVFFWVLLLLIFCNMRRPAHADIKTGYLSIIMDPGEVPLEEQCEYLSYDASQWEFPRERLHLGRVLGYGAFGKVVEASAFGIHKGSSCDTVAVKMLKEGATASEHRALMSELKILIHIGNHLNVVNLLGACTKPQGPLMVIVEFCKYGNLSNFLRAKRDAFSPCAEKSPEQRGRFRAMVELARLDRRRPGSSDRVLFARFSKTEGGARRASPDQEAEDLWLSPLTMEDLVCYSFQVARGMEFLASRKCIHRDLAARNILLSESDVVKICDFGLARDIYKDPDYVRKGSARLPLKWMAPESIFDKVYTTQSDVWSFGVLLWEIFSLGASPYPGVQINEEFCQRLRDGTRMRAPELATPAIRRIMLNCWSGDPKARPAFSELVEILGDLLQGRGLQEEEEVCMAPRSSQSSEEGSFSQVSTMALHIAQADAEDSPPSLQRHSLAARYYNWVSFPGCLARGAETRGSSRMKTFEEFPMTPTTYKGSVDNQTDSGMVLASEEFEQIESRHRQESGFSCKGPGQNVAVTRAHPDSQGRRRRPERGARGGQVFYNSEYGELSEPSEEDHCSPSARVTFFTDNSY
# [5] = molecular target: Insulin receptor-related protein (Homo sapiens) (UniProt P14616); assay: Selectivity interaction (KinomeScan (DiscoverX)) EUB0001619a INSRR; settings: at 1 µM
# Sequence of Insulin receptor-related protein (Homo sapiens) (P14616 27-742 limits assumed): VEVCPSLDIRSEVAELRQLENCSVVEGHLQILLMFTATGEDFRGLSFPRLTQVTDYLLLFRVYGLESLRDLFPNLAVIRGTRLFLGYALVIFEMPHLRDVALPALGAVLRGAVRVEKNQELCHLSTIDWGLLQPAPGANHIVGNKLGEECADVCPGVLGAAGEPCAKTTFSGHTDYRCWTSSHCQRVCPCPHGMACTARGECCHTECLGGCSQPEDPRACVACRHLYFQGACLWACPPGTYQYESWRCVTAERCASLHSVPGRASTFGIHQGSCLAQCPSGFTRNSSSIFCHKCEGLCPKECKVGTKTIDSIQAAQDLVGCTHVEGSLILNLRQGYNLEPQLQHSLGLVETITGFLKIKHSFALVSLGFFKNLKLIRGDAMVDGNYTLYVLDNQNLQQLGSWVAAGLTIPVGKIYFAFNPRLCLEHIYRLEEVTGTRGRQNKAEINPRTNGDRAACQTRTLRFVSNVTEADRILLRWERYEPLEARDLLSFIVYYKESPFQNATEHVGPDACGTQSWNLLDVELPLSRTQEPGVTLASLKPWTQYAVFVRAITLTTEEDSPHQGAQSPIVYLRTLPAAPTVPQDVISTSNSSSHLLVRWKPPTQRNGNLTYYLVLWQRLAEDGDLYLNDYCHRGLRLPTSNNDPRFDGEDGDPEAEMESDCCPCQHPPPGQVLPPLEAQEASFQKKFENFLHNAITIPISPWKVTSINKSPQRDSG
# Sequence of Insulin receptor-related protein (Homo sapiens) (P14616 747-1297 limits assumed): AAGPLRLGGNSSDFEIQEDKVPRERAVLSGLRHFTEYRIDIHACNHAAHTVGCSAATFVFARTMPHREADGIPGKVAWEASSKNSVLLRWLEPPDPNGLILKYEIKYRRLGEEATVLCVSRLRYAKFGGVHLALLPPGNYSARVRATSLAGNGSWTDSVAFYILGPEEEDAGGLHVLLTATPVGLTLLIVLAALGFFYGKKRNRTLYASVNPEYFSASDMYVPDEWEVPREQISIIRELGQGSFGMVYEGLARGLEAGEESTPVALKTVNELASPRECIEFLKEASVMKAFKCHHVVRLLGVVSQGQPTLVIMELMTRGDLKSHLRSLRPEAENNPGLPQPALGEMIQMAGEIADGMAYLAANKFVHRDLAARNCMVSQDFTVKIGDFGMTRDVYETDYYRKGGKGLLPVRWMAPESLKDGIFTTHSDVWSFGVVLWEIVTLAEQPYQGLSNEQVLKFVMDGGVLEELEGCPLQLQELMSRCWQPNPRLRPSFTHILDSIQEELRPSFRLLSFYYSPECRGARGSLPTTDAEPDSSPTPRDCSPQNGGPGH
# [6] = molecular target: Non-receptor tyrosine-protein kinase TYK2 (Homo sapiens, UniProt P29597); assay: Selectivity interaction (KinomeScan (DiscoverX)) EUB0000607a TYK2; settings: at 10 µM
# Sequence of Non-receptor tyrosine-protein kinase TYK2 (P29597 whole entry): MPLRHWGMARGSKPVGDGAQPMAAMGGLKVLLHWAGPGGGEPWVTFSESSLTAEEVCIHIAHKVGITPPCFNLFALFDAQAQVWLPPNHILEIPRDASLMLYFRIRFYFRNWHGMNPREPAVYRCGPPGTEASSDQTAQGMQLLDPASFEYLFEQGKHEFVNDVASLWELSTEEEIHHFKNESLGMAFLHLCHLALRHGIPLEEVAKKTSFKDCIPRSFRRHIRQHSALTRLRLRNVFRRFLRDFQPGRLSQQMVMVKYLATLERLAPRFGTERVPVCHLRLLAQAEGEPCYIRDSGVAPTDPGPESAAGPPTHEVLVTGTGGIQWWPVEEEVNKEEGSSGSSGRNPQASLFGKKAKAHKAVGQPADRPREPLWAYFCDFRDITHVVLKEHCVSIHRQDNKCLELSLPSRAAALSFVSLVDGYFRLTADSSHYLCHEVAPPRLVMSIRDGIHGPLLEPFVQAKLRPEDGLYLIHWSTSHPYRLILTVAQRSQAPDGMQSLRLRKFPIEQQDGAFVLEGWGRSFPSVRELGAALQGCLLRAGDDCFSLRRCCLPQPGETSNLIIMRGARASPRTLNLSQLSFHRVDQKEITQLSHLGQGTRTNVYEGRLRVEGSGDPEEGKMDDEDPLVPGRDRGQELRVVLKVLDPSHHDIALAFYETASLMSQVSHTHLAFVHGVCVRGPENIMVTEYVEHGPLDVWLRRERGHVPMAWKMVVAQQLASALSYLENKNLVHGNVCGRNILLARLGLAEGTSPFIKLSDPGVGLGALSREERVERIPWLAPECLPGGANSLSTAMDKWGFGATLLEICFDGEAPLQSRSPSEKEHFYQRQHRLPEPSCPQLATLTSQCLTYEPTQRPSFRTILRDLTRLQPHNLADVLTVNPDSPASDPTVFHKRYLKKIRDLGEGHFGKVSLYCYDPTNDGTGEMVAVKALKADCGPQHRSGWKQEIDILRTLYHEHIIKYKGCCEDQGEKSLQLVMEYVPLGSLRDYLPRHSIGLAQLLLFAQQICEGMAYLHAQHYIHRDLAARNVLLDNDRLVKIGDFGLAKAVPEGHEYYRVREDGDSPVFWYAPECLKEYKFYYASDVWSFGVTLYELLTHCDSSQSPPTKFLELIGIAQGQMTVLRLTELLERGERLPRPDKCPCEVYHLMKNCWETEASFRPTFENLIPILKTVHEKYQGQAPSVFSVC
# [7] = molecular target: T3, Interleukin-1 receptor-associated kinase 3 (Homo sapiens) (UniProt Q9Y616); assay: Selectivity interaction (KinomeScan (DiscoverX)) EUB0000618a IRAK3; settings: at 10 µM
# T3 sequence (whole entry): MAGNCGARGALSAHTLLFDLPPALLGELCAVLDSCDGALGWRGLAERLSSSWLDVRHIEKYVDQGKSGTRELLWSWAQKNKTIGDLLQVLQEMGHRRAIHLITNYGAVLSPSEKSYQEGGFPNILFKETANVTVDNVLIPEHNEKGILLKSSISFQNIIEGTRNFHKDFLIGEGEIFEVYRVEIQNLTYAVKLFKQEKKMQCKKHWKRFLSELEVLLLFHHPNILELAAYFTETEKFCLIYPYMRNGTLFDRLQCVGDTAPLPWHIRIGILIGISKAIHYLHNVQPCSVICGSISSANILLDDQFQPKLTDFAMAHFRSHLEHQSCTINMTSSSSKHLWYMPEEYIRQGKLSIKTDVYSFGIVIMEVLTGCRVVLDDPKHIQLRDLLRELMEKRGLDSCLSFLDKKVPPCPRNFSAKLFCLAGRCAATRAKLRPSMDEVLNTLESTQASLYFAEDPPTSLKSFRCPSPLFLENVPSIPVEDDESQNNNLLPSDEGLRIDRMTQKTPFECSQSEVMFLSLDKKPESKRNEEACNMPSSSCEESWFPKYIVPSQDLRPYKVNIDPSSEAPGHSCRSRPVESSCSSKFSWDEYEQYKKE
smiles,measurement,setting,value
C=CC(=O)Nc1cc(-n2c(=O)ccc3cnc4ccc(-c5ccc(NS(C)(=O)=O)cc5)cc4c32)ccc1C,% of control,[1]; at 1 µM,49%
same,% of control,[1]; at 10 µM,6.1%
same,GIC50,[2],7.98 µM
Cn1cc(-n2cnc3c(NCc4nc5cc(Cl)c(Cl)cc5[nH]4)nc(N4CCOCC4)nc32)cn1,% of control,[3],-0.658%
C=CC(=O)Nc1cccc(C(=O)Nc2ccc(Nc3cc(-c4[nH]c(SC)nc4C)ccn3)cc2)c1,% of control,[4]; at 1 µM,73%
same,% of control,[4]; at 5 µM,68%
N#Cc1cccc(-c2c[nH]c3ncnc(N4CCOCC4)c23)c1,% of control,[5],100%
CNC(=O)Nc1ccc(-c2nc(N3CC4CCC(C3)O4)c3cnn(C4CCC5(CC4)OCCO5)c3n2)cc1,% of control,[6],100%
O[C@H]1CC[C@H](Nc2ncc3nc(Nc4c(F)cc(F)cc4F)n([C@H]4CCOC4)c3n2)CC1,% of control,[7],100%
